Test results taken from PMC6522510 (Nature Communications, 2019).
Read-outs that look alike come from different tables or passages of the source.

Key:
Set-up in all cases: species or system AML cell lines (8); Primary HTS, single concentration about 10 uM, Cell Titer Glo viability; log10 luminescence, per cent inhibition relative to cycloheximide control
Conditions in all cases: 72 h, relative to cycloheximide control, log10 luminescence, inhibitor
CMS = system: CMS
MOLM-13 = system: MOLM-13
CMK = system: CMK
U937 = system: U937
MV4-11 = system: MV4-11
CHRF288-11 = system: CHRF288-11
ML-2 = system: ML-2
M07e = system: M07e

Structure (SMILES)	CMS %inh (CMS; CMS %inh, 10 µM)	MOLM-13 %inh (MOLM-13; MOLM-13 %inh, 10 µM)	CMK %inh (CMK; CMK %inh, 10 µM)	U937 %inh (U937; U937 %inh, 10 µM)	MV4-11 %inh (MV4-11; MV4-11 %inh, 10 µM)	CHRF288-11 %inh (CHRF288-11; CHRF288-11 %inh, 10 µM)	ML-2 %inh (ML-2; ML-2 %inh, 10 µM)	M07e %inh (M07e; M07e %inh, 10 µM)	CMS %inh (CMS)	MOLM-13 %inh (MOLM-13)	CMK %inh (CMK)	U937 %inh (U937)	MV4-11 %inh (MV4-11)	CHRF288-11 %inh (CHRF288-11)	ML-2 %inh (ML-2)	M07e %inh (M07e)
Nc1ncnc2occ(-c3ccc(NC(=O)Nc4cc(C(F)(F)F)ccc4F)cc3)c12 [SJ000573048-1, CL210513-029A3 | T299/89/1 | YF46626-103A2]	8.741%	82.99%	31.71%	17.4%	68.76%	26.14%	1.043%	14.83%								
Nc1ncnc2occ(-c3ccc(NC(=O)Nc4cc(C(F)(F)F)ccc4F)cc3)c12 [SJ000573048-2, CL210513-029A3 | T299/89/1 | YF46626-103A2]	10.62%	99.82%	82.88%	50.36%	78.92%	5.114%	4.549%	28.03%								
Cc1cc(O)cc(C)c1/C=C/c1cncc(-c2nn[nH]n2)c1 [SJ000573052-1, T252/80/1]									-2.3%	-1.521%	-5.146%	-3.239%	-3.299%	-3.388%	-1.281%	-1.115%
CN(C)C(=O)O[C@H]1CN[C@H](C#Cc2cc3ncnc(Nc4ccc(OCc5cccc(F)c5)c(Cl)c4)c3s2)C1 [SJ000573053-1, U20298/139/1 | U20747/39/1]									2.516%	-0.949%	-4.087%	-0.4617%	4.747%	65.04%	5.015%	1.476%
CN(C)C(=O)O[C@@H]1CN[C@@H](C#Cc2cc3ncnc(Nc4ccc(OCc5cccc(F)c5)c(Cl)c4)c3s2)C1 [SJ000573053-2, U20298/139/1 | U20747/39/1]									4.277%	-3.067%	-4.505%	3.489%	-0.77%	39.41%	1.706%	-1.206%
COc1cccc(-n2cnc3c(N/N=C/c4ccncc4)ncnc32)c1 [SJ000573055-1, U17791/62/2]									0.1507%	29.19%	9.137%	6.107%	22.16%	0.9652%	-0.9344%	2.779%
CN1CCN(C(=O)c2ccc(NC(=O)Nc3ccc(N(C)c4ccnc(Nc5ccc(CS(C)(=O)=O)cc5)n4)cc3)cc2)CC1 [SJ000573056-1, U17983/92/5]									-2.808%	94.26%	6.346%	5.393%	82.16%	0.03637%	10.8%	-6.05%
Cc1ccc2c(-c3ccnc(Nc4cccc(C(F)(F)F)c4)n3)c(-c3ccccc3)nn2n1 [SJ000573057-1, U18020/146/1]									10.95%	-0.1836%	8.756%	5.106%	9.271%	-3.995%	9.435%	0.344%
COc1cc(C=NNc2ncnc3c2cnn3Cc2ccccc2)ccc1O [SJ000573058-1, T237/25/8]									-1.754%	-1.629%	-3.542%	-2.319%	-3.195%	-7.429%	0.3051%	-2.447%
